Measured values as given in patent US9315489B2, “Compounds and compositions for inhibiting the activity of ABL1, ABL2 and BCR-ABL1” (Novartis AG, priority 2012, dated 2016).
Where two headings read alike, the source gives them in different places.

How the values were obtained:
ABL1 (64-515) [1] = target: T1, ABL1 (64-515) (Homo sapiens (Human), UniProt P00519); assay: Radio ABL1 (64-515) assay (radiometric filter-binding); assay type: biochemical
Ba/F3-BCR-ABL1-WT cells = assay: Ba/F3-BCR-ABL1-WT cellular proliferation assay; assay type: cell-based, murine; conditions: Mus musculus, read-out: Ba/F3-BCR-ABL1-WT IC50
[2] = system: Ba/F3-BCR-ABL1-T315I cells; assay: Ba/F3-BCR-ABL1-T315I cellular proliferation assay; assay type: cell-based, murine; conditions: Mus musculus, read-out: Ba/F3-BCR-ABL1-T315I IC50
Description: The murine bone marrow-derived cell line Ba/F3 was used to generate the appropriate cell line models. Ba/F3 cells were obtained from the German Collection of Microorganisms and Cell Cultures (DSMZ, Braunschweig and DSMZ No. ACC 300). […] These cells are referred to as Ba/F3-WT.
To generate Ba/F3 cells that depend on BCR-ABL1 expression for growth and survival, Ba/F3 cells were engineered to express BCR-ABL1 using retroviral transduction with a MSCV based retroviral vector containing a p210 BCR-ABL1expression cassette. When grown in the absence of IL-3, the proliferation of the cells is dependent on the expression of BCR-ABL1. (Daley, G. Q. and Baltimore, D. Transformation of an interleukin 3-dependent hematopoietic cell line by the chronic myeloid leukemia-specific p210 BCR-ABL1 protein. PNAS 1988; 85:9312-9316). These cells are referred to as Ba/F3-BCR-ABL1-WT. A similar approach was used to generate Ba/F3 cells that depend on a BCR-ABL1 variant in which threonine 315 is replaced with isoleucine. These cells are referred to as Ba/F3-BCR-ABL1-T3151.
Ba/F3-WT cells were maintained in RPMI1640 media with L-glutamine, HEPES (Lonza), 10% FBS (Gibco) and 5 ng/ml IL-3 (Calbiochem). Ba/F3-BCR-ABL1-WT cells and Ba/F3-BCR-ABL1-T3151 cells were maintained in RPMI1640 media with L-glutamine, HEPES (Lonza) and 10% FBS (Gibco).
For each cell line, the cell density was adjusted to 50 000 cells/mL and 50 μL (2500 cells) added per well of a 384-well assay plate.
Test compounds were resuspended in DMSO at a concentration of 10 mM. A serial three-fold dilution of each compound with DMSO was performed in 384-well plates using the Janus Liquid Dispenser (PerkinElmer). Compound was delivered to the assay plates containing 2500 cells in a 50 μL volume via Acoustic delivery from an ATS-100 (EDC). For Ba/F3-BCR-ABL1-WT cell assays, […] of each compound dilution was transferred to the assay plate for final assay concentrations of 0.4 μM, 0.13 μM, 0.044 μM, 0.015 μM, 0.005 μM, 0.001 μM, 0.00033 μM, 0.00011 μM, 0.000037 μM, 0.000012 μM. For Ba/F3-WT and Ba/F3-BCR-ABL1-T315I cell assays, […] of each compound dilution was transferred to the assay plate for final assay concentrations of 10 μM, 3.33 μM, 1.11 μM, 0.37 μM, 0.12 μM, 0.041 μM, 0.014 μM, 0.0046 μM, 0.0015 μM, 0.00051 μM.
Cells were incubated at 37° C. in a humidified environment with 5% carbon dioxide for 48 hours. Britelite plus solution (Perkin Elmer) was prepared according to the manufacturer's instructions and 25 μL added to each well of the assay plate. Plates were incubated for 3-5 minutes and the luminescence detected on an EnVision Multimode plate reader (Perkin Elmer). The degree of luminescence correlates with the number of cells in each well. The effect of each inhibitor concentration can therefore be calculated and IC50 values generated.

[3] = Compound concentration in mouse brain and plasma; assay type: in vivo; conditions: 5 minutes after a single intravenous injection of 1 mg/kg in mice; for Kp at 5 min / concentration at 5 min: mouse; for Kp at 5 min: brain/plasma, read-out: Mean Ratio (brain/plasma); for concentration at 5 min: plasma, read-out: Mean blood (drug concentration in plasma)
ABL1 (64-515) [4] = target: T1, ABL1 (64-515); assay: Caliper ABL1 (64-515) assay (microfluidic mobility shift); assay type: biochemical

T1 sequence (P00519 64-515): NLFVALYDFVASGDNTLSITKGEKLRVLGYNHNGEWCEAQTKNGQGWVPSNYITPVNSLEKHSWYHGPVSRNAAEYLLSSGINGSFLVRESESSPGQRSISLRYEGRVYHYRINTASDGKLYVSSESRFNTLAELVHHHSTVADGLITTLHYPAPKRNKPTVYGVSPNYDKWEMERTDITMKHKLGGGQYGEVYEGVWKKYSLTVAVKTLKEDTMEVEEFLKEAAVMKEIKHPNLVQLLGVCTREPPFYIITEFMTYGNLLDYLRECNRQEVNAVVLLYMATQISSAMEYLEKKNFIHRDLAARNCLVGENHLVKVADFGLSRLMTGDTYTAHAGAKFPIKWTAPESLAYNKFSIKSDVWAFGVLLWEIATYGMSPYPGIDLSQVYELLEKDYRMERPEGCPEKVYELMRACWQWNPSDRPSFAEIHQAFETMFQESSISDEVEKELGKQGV

| IC50 (ABL1 (64-515) [1]) | IC50 (ABL1 (64-515) [4]) | SMILES | IC50 (Ba/F3-BCR-ABL1-WT cells; 48 hours) | IC50 ([2]; 48 hours) | also measured |
| --- | --- | --- | --- | --- | --- |
| < 3 nM | – | O=C(Nc1ccc(SC(F)(F)F)cc1)c1cccc(-c2cncnc2)c1 [Example 11, 3-(Pyrimidin-5-yl)-N-(4-((trifluoromethyl)thio)phenyl)benzamide] | 3.9 nM | 563 nM | Mean brain (drug concentration in brain) [3]: 7341 pmol/g; Kp at 5 min [3]: 4.99; concentration at 5 min [3]: 1470 nM |
| – | – | COc1ccc(C(=O)Nc2ccc(OC(F)(F)F)cc2)cc1-c1cncnc1 [Example 30, 4-methoxy-3-(pyrimidin-5-yl)-N-(4-(trifluoromethoxy)phenyl)benzamide] | – | – | IC50 (Ba/F3-BCR-ABL1-WT cells; 48 h): 4.1 nM; IC50 ([2]; 48 h): 849 nM; Mean brain (drug concentration in brain) [3]: 4471 pmol/g; concentration at 5 min [3]: 5390 nM |
| 3.6 nM | – | O=C(Nc1ccc(OC(F)(F)F)cc1)c1ccc(OCCN2CCOCC2)c(-c2cncnc2)c1 [Example 37, 4-(2-Morpholinoethoxy)-3-(pyrimidin-5-yl)-N-(4-(trifluoromethoxy)phenyl)benzamide] | – | 521 nM | – |
| – | – | O=C(Nc1ccc(OC(F)(F)F)cc1)c1cnc(C2CCOCC2)c(-c2cncnc2)c1 [Example 45, 5-(Pyrimidin-5-yl)-6-(tetrahydro-2h-pyran-4-yl)-N-(4-(trifluoromethoxy)phenyl)nicotinamide] | – | 460 nM | – |
| – | 6.6 nM | N#CC1(c2ncc(C(=O)Nc3ccc(OC(F)(F)F)cc3)cc2-c2cncnc2)CCOCC1 [Example 46, 6-(4-Cyanotetrahydro-2h-pyran-4-yl)-5-(pyrimidin-5-yl)-N-(4-(trifluoromethoxy)phenyl)nicotinamide] | – | – | – |
| – | – | CC(C)(C#N)c1ncc(C(=O)Nc2ccc(OC(F)(F)F)cc2)cc1-c1cncnc1 [Example 47, 6-(2-Cyanopropan-2-yl)-5-(pyrimidin-5-yl)-N-(4-(trifluoromethoxy)phenyl)nicotinamide] | – | 736 nM | – |
| 63 nM | 51 nM | COCCOc1ncc(C(=O)Nc2ccc(OC(F)(F)F)cc2)cc1-c1cncnc1 [Example 51, 6-(2-Methoxyethoxy)-5-(pyrimidin-5-yl)-N-(4-(trifluoromethoxy)phenyl)nicotinamide] | – | – | – |
| 8.9 nM | 22 nM | O=C(Nc1ccc(OC(F)(F)F)cc1)c1cnc(OC2CCOCC2)c(-c2cncnc2)c1 [Example 53, 5-(Pyrimidin-5-yl)-6-((tetrahydro-2h-pyran-4-yl)oxy)-N-(4-(trifluoromethoxy)phenyl)nicotinamide] | – | – | – |
| 10 nM | 9.9 nM | O=C(Nc1ccc(OC(F)(F)F)cc1)c1cnc(Cl)c(-c2cncnc2)c1 [Example 56, 6-Chloro-5-(pyrimidin-5-yl)-N-(4-(trifluoromethoxy)phenyl)nicotinamide] | – | 488 nM | – |
| 20 nM | 93 nM | O=C(Nc1ccc(OC(F)(F)F)cc1)c1cc(-c2cncnc2)ccc1F [Example 59, 2-Fluoro-5-(pyrimidin-5-yl)-N-(4-(trifluoromethoxy)phenyl)benzamide] | – | – | – |
| 3.5 nM | 31.5 nM | Nc1ncc(-c2cncc(C(=O)Nc3ccc(OC(F)(F)F)cc3)c2)cn1 [Example 61, 5-(2-Aminopyrimidin-5-yl)-N-(4-(trifluoromethoxy)phenyl)nicotinamide] | – | – | – |
| 114 nM | 200 nM | O=C(Nc1ccc(OC(F)(F)F)cc1)c1cncc(-c2cnn(CCO)c2)c1 [Example 64, 5-(1-(2-Hydroxyethyl)-1H-pyrazol-4-yl)-N-(4-(trifluoromethoxy)phenyl)nicotinamide] | – | – | – |
| – | – | CC(C)(O)c1ncc(C(=O)Nc2ccc(OC(F)(F)F)cc2)cc1-c1cncnc1 [Example 66, 6-(2-Hydroxypropan-2-yl)-5-(pyrimidin-5-yl)-N-(4-(trifluoromethoxy)phenyl)nicotinamide] | – | 722 nM | – |
| 8.7 nM | – | O=C(Nc1ccc(OC(F)(F)F)cc1)c1cncc(-c2cccnc2)c1 [Example 74, N-(4-(Trifluoromethoxy)phenyl)-[3,3′-bipyridine]-5-carboxamide] | 30 nM | – | Mean brain (drug concentration in brain) [3]: 8509 pmol/g; Kp at 5 min [3]: 3.29; concentration at 5 min [3]: 2580 nM |
| – | 55 nM | O=C(Nc1ccc(OC(F)(F)F)cc1)c1cnc(Cl)c(-c2ccn[nH]2)c1 [Example 80, 6-Chloro-5-(1H-pyrazol-5-yl)-N-(4-(trifluoromethoxy)phenyl)nicotinamide] | – | – | – |

| SMILES | IC50 (ABL1 (64-515) [1]) | IC50 (ABL1 (64-515) [4]) | IC50 (Ba/F3-BCR-ABL1-WT cells; 48 hours) | IC50 ([2]; 48 hours) | also measured |
| --- | --- | --- | --- | --- | --- |
| O=C(Nc1ccc(OC(F)(F)Cl)cc1)c1cccc(-c2cncnc2)c1 [Example 10, N-(4-(Chlorodifluoromethoxy)phenyl)-3-(pyrimidin-5-yl)benzamide] | 9.5 nM | – | 2.1 nM | 400 nM | Mean brain (drug concentration in brain) [3]: 4093 pmol/g; Kp at 5 min [3]: 3.24; concentration at 5 min [3]: 1260 nM |
| Cc1ccc(C(=O)Nc2ccc(OC(F)(F)F)cc2)cc1-n1ccnc1 [Example 16, 3-(1H-Imidazol-1-yl)-4-methyl-N-(4-(trifluoromethoxy)phenyl)benzamide] | 4 nM | – | 1.2 nM | 617 nM | – |
| Cc1ccc(C(=O)Nc2ccc(OC(F)(F)F)cc2)cc1-c1cncs1 [Example 17, 4-Methyl-3-(thiazol-5-yl)-N-(4-(trifluoromethoxy)phenyl)benzamide] | 3 nM | – | 27 nM | – | Mean brain (drug concentration in brain) [3]: 6985 pmol/g; Kp at 5 min [3]: 2.3; concentration at 5 min [3]: 3030 nM |
| Cc1ncc(C(=O)Nc2ccc(OC(F)(F)F)cc2)cc1-c1cncnc1 [Example 43, 6-Methyl-5-(pyrimidin-5-yl)-N-(4-(trifluoromethoxy)phenyl)nicotinamide] | 3 nM | 2.3 nM | 10 nM | – | – |
| O=C(Nc1ccc(OC(F)(F)F)cc1)c1cnc(C2=CCOCC2)c(-c2cncnc2)c1 [Example 44, 6-(3,6-Dihydro-2h-pyran-4-yl)-5-(pyrimidin-5-yl)-N-(4-(trifluoromethoxy)phenyl)nicotinamide] | 6 nM | – | – | 214 nM | – |
| O=C(Nc1ccc(OC(F)(F)F)cc1)c1cnc(OCCO)c(-c2cncnc2)c1 [Example 52, 6-(2-hydroxyethoxy)-5-(pyrimidin-5-yl)-N-(4-(trifluoromethoxy)phenyl)nicotinamide] | 23 nM | 23 nM | – | 499 nM | – |
| O=C(Nc1ccc(OC(F)(F)F)cc1)c1cnc(C(F)(F)F)c(-c2cncnc2)c1 [Example 57, 5-(Pyrimidin-5-yl)-N-(4-(trifluoromethoxy)phenyl)-6-(trifluoromethyl)nicotinamide] | 22 nM | – | – | 703 nM | – |
| O=C(Nc1ccc(OC(F)(F)F)cc1)c1cccc(-c2cncnc2)n1 [Example 73, 6-(Pyrimidin-5-yl)-N-(4-(trifluoromethoxy)phenyl)picolinamide] | 684 nM | 540 nM | 1870 nM | – | – |
| O=C(Nc1ccc(OC(F)(F)F)cc1)c1cnc(Cl)c(-c2cncc(F)c2)c1 [Example 77, 2-Chloro-5′-fluoro-N-(4-(trifluoromethoxy)phenyl)-[3,3′-bipyridine]-5-carboxamide] | – | 4.9 nM | 13 nM | – | – |
| O=C(Nc1ccc(OC(F)(F)F)cc1)c1cnc(Cl)c(-c2cccnc2)c1 [Example 79, 2-Chloro-N-(4-(trifluoromethoxy)phenyl)-[3,3′-bipyridine]-5-carboxamide] | – | 10 nM | 6 nM | – | – |
